Results on one compound are retold here after publication PMC6934184, “Selective DNA-PKcs inhibition extends the therapeutic index of localized radiotherapy and chemotherapy” (The Journal of Clinical Investigation, 2019).

The experiment addresses T1, MAP3K9 (MLK1) (Homo sapiens, UniProt P80192).
T1 construct: purchased Thermo Fisher Scientific (Life Technologies) SelectScreen
In words: SelectScreen Z'LYTE. The experiment is classed as biochemical. In outline: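 NU5455 was profiled across the SelectScreen Broad panel of kinase activity and binding assays. Z'LYTE reactions such as CSF1R ran at apparent Km ATP, while the Adapta CAMK1 assay used ATP listed as 10. Values are given as percent.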

T1 sequence (P80192 whole entry): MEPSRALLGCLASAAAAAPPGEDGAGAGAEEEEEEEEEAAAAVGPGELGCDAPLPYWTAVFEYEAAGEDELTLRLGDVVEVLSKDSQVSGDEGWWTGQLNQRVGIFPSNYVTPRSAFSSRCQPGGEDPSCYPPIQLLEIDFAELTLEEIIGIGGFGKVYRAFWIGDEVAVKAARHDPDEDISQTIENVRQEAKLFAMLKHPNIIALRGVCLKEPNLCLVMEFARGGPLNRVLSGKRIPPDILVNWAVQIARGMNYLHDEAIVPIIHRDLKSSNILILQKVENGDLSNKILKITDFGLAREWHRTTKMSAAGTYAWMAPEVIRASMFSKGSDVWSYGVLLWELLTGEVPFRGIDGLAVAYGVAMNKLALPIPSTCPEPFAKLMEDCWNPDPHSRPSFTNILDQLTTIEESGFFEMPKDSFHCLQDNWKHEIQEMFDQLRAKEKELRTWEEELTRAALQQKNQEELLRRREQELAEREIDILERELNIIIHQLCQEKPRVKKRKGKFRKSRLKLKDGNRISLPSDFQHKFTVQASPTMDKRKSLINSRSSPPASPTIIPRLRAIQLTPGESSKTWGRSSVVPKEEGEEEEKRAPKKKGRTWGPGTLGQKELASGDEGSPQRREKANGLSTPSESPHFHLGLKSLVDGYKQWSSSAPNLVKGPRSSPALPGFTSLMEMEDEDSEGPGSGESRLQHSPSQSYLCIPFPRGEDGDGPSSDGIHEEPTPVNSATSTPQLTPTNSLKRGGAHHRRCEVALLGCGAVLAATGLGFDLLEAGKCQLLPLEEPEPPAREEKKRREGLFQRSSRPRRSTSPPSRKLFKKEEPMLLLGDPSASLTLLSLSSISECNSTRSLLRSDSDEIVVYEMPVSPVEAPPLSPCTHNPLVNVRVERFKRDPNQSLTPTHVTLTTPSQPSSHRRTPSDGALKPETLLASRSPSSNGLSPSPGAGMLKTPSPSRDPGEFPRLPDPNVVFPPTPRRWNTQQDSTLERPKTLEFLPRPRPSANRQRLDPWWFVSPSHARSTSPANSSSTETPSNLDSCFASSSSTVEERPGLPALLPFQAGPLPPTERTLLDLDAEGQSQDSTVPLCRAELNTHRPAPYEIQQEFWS

Take `CN(C(=O)CN1CCOCC1)c1ccc2sc3c(-c4cccc5c(=O)cc(N6CC7CCC(C6)O7)oc45)cccc3c2c1` [NU5455]: the inhibition (as a rule, the drop in the measured response relative to a control, in per cent) at 1 µM is -0.5%.
